Reference: patent US9382295B2, “Cyclic depsipeptide compounds and their uses” (Cypralis Limited, priority 2012, dated 2016)
In brackets after ≈: the same amount, converted by molar mass. Where two headings read alike, the source gives them in different places. Numbered stars: 1 amine (or outer) side, 2 acyl side, 3 side chain; on linkers, the order of the positions; unused ones are H or OH. Square brackets hold non-standard residues; d marks the D form. Peptide text beside a SMILES is read from it. X2 = C[C@H](CCCc1cccc(N2CCOCC2)n1)[C@@H](O)[C@H](C(=O)[*:2])N(C)[*:1]; X5 = C[C@H](CCN1CCS(=O)(=O)CC1)[C@@H](O)[C@H](C(=O)[*:2])N(C)[*:1]; X3 = C[C@H](CCN1CC2CCC(C1)O2)[C@@H](O)[C@H](C(=O)[*:2])N(C)[*:1]; X1 = Cc1cccc(CCC[C@@H](C)[C@@H](O)[C@H](C(=O)[*:2])N(C)[*:1])n1; X4 = C[C@H](C/C=C/c1ncccn1)[C@@H](O)[C@H](C(=O)[*:2])N(C)[*:1]; d(aThr) = C[C@@H](O)[C@@H](N)C(=O)O; NMeL = CN[C@@H](CC(C)C)C(=O)O; dNMeL = CN[C@H](CC(C)C)C(=O)O; dNMeV = CN[C@@H](C(=O)O)C(C)C; Hiv = CC(C)[C@H](O)C(=O)O; Sar = CNCC(=O)O

Experiments:
[1] = target: T1, calcineurin/cyclophilin A (Homo sapiens, UniProt P62937+P63098+Q08209); assay: Calcineurin phosphatase (CaN) assay in the presence of Cyp A; type: biochemical; details: inhibitor in 1:1 complex with Cyp A; read-out: CaN + CypA (IC50 in the calcineurin/cyclophilin A assay)
T1 construct: purchased Enzo Life Sciences (calcineurin, calmodulin); Sigma (CypA) BML-AK804; C3805
T1 sequence (P63098 whole entry, other chains not shown): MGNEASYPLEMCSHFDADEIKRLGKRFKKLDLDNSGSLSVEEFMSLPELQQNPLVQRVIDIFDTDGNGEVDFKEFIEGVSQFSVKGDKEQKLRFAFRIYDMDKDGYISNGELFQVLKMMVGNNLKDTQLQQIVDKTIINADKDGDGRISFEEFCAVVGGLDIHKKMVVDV
T1 sequence (P62937 whole entry, other chains not shown): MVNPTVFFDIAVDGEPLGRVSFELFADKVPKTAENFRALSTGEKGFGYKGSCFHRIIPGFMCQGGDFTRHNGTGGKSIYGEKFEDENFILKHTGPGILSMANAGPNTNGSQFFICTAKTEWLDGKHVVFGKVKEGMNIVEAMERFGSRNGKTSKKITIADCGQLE
From the text: **Calcineurin Phosphatase (CaN) Assay The calcineurin phosphatase assay is a means for estimating the immunosuppressive potential of a test compound. Calcineurin is a serine-threonine protein phosphatase that on activation dephosphorylates members of the nuclear factor of activated T cells (NFAT), which are important in T lymphocyte activation. […] To investigate the immunosuppressive potential of exemplary compounds of Formula 1, which are novel cycloundecadepsipeptide compounds, their ability to inhibit calcineurin activity was measured in the presence of Cyp A. The CaN assay kit used is based on a colorimetric assay for measuring calcineurin phosphatase activity, and it is commercially available (Enzo Life Sciences and Calbiochem). Calmodulin is also required for calcineurin activity and RH phosphopeptide is used as an efficient peptide substrate for calcineurin. […] The detection of free phosphate released is based on the classic Malachite green assay. Enzo Life Sciences CaN Assay Kit: BML-AK804 2× assay buffer: 100 mM Tris, pH7.5, 200 mM NaCl, 12 mM MgCl2, 1 mM DTT, 0.05% NP-40, 1 mM CaCl2 Calmodulin (Human, Recombinant): was thawed on ice, diluted 1:50 with 2× assay buffer, and then stored on ice. Calcineurin: was thawed quickly, stored on ice immediately, diluted 1:12.5 with 1× assay buffer, and then stored on ice. R-II Substrate: 915 μL ultrapure water (UPW) was added to the 1.5 mg vial substrate to give a final concentration of 0.75 mM. Inhibitors: 2.5 mM inhibitor in 100% DMSO. Cyp A: recombinant human CypA (Sigma C3805), 1 mg/ml; Recombinant 6-his tagged CypA prepared by the Univ. of Edinburgh was also used. […] Inhibitor dilutions: inhibitor compounds were diluted in UPW in polypropylene low-binding 96 well plates at 5x the final assay concentration. For samples ‘without Cyp A’, a 4-point dilution series of the inhibitor was prepared in duplicate to obtain a final assay concentration of 10, 1, 0.1 and 0.01 μM. […] Cs A inhibitor controls were also prepared to obtain a final concentration of 10 μM Cs A with and without 10 μM Cyp A. Assay Setup: using the half area 96 well plates supplied with the kit, 10 μl UPW was added to duplicate wells to provide the non-inhibited control. 10 μl of the inhibitor or the inhibitor/Cyp A complex was added to the appropriate sample wells. 25 μl of the 2× assay buffer with CaM was added to all wells, then 5 μl of CaN was added to all wells (40 U per well final concentration) except duplicate ‘no calcineurin blank’ wells to which 5 μL 1× assay buffer was added. […] The reaction was started by the addition of 10 μl RII-peptide (0.15 mM final concentration). The reaction was allowed to proceed at 30° C. for a time period in which the reaction is linear for about 60 minutes. The reaction was then terminated by adding 100 μl of the Malachite Green reagent. […] The data were analyzed by subtracting ‘no Calcineurin blank’ from all the absorbance readings and plotting the background corrected absorbances against Log10 inhibitor concentration. A sigmoidal-dose response curve was fitted to the data using GraphPad Prism Software. […] It exerts its immunosuppressive activity by binding to cyclophilin A to form a complex, which then binds to calcineurin and thereby inhibits calcineurin activity.

cyclophilin A (Cyp A) = target: T2, cyclophilin A (Cyp A) (Homo sapiens, UniProt P62937); assay: Protease-free PPIase assay, cyclophilin A; type: biochemical
T2 construct: purchased Sigma C3805
T2 sequence (P62937 whole entry): as the sequence (P62937 whole entry, other chains not shown) above
In short: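 Protease-free cis-trans isomerisation: 2 nM recombinant human cyclophilin A with 60 μM succinimide-peptide substrate in 35 mM HEPES pH 7.8 plus DTT, at 10.0 °C, max 0.5% DMSO. Absorbance at 330 nm was fitted to first-order kinetics, background subtracted, and catalytic rates versus inhibitor concentration gave Ki.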

cyclophilin D (Cyp D) = cyclophilin D (Cyp D) (Homo sapiens, UniProt P30405); assay: Protease-free PPIase assay, cyclophilin D; type: biochemical
Sequence of cyclophilin D (Cyp D) (P30405 30-207): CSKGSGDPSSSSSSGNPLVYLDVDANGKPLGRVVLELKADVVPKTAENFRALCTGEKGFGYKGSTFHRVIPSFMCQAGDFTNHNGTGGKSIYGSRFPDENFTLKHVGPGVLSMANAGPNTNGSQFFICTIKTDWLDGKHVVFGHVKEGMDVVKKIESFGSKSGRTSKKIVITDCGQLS
In short: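 Cis-trans isomerization of a succinimide-peptide substrate (60 µM final) by 2 nM enzyme was followed at 330 nm in 35 mM HEPES pH 7.8 with 50 µM DTT, stirred at 10.0 °C, DMSO ≤0.5%. First-order rate constants minus background were fitted against inhibitor concentration to give Ki.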

[2] = Water solubility assay (pH 7.8 buffer); type: physicochemical
In short: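 DMSO stocks were diluted into 35 mM HEPES pH 7.8 to final 0–100 μM with 1% DMSO, in triplicate. Plates were shaken 18 h at 25 °C, then precipitation was detected as increased absorbance at 650 nm. Values give the concentration (μM) at which the compound remains in solution.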

SMILES | IC50 [1] | Ki (cyclophilin A (Cyp A); protease-free PPIase assay, class symbols, read-out: CypA Ki) | Ki (cyclophilin D (Cyp D); protease-free PPIase assay, class symbols, read-out: CypD Ki) | solubility at 18 h ([2]; 35 mM HEPES buffer, 35 mM HEPES pH 7.8, 1% DMSO, 25° C., 18 h, concentration at which compound remains in solution, read-out: Solubility) | Ki (cyclophilin A (Cyp A)) | Ki (cyclophilin D (Cyp D)) | solubility at 18 h ([2]; pH 7.8)
CC(C)C[C@@H]1C(=O)N[C@H](CC(C)C)C(=O)N(C)[C@H](C(C)C)C(=O)N(C)[C@H]([C@H](O)[C@H](C)CCCc2cccc(N3CCOCC3)n2)C(=O)N[C@H]([C@@H](C)O)C(=O)N(C)CC(=O)N(C)[C@@H](CC(C)C)C(=O)N[C@H](CC(C)C)C(=O)N(C)[C@H](CC(C)C)C(=O)N[C@H](C)C(=O)O[C@@H](C(C)C)C(=O)N1C [Example 20, cyclo-[(3R,4R,5S)-4-(hydroxy)-3-methyl-5-(methylamino)-1-(6-morpholin-4-yl-pyridin-2-yl)-heptanoic acid-Thr-Sar-MeLeu-Leu-MeLeu-Ala-D-Hiv-MeLeu-Leu-MeVal]] (cyclo([Hiv][dNMeL][dL][dNMeV][X2][d(aThr)][Sar][NMeL][dL][dNMeL][dA])) | > 5000 nM | 1 to 25 nM | 1 to 25 nM | 10 to 25 µM (≈ 14 to 34.9 µg/mL) | – | – | –
CC(C)C[C@@H]1C(=O)N[C@H](CC(C)C)C(=O)N(C)[C@H](C(C)C)C(=O)N(C)[C@H]([C@H](O)[C@H](C)CCN2CCS(=O)(=O)CC2)C(=O)N[C@H]([C@@H](C)O)C(=O)N(C)CC(=O)N(C)[C@@H](CC(C)C)C(=O)N[C@H](CC(C)C)C(=O)N(C)[C@H](CC(C)C)C(=O)N[C@H](C)C(=O)O[C@@H](C(C)C)C(=O)N1C [Example 23, cyclo-[(3R,4R,5S)-4-(hydroxy)-3-methyl-5-(methylamino)-1-N-(thiomorpholine 1,1-dioxide)-hexanoic acid-Thr-Sar-MeLeu-Leu-MeLeu-Ala-D-Hiv-MeLeu-Leu-MeVal]] (cyclo([Hiv][dNMeL][dL][dNMeV][X5][d(aThr)][Sar][NMeL][dL][dNMeL][dA])) | > 10000 nM | – | – | – | 1 to 25 nM | 1 to 25 nM | 75 to 100 µM (≈ 102 to 135 µg/mL)
CC(C)C[C@@H]1C(=O)N[C@H](CC(C)C)C(=O)N(C)[C@H](C(C)C)C(=O)N(C)[C@H]([C@H](O)[C@H](C)CCN2CC3CCC(C2)O3)C(=O)N[C@H]([C@@H](C)O)C(=O)N(C)CC(=O)N(C)[C@@H](CC(C)C)C(=O)N[C@H](CC(C)C)C(=O)N(C)[C@H](CC(C)C)C(=O)N[C@H](C)C(=O)O[C@@H](C(C)C)C(=O)N1C [Example 22, cyclo-[(3R,4R,5S)-4-(hydroxy)-3-methyl-5-(methylamino)-1-N-(8-oxa-3-aza-bicyclo[3.2.1]octane)-hexanoic acid-Thr-Sar-MeLeu-Leu-MeLeu-Ala-D-Hiv-MeLeu-Leu-MeVal]] (cyclo([Hiv][dNMeL][dL][dNMeV][X3][d(aThr)][Sar][NMeL][dL][dNMeL][dA])) | > 10000 nM | – | – | – | 1 to 25 nM | 1 to 25 nM | 25 to 50 µM (≈ 33.3 to 66.6 µg/mL)
C/C=C/C[C@@H](C)[C@@H](O)[C@@H]1C(=O)N[C@H]([C@@H](C)O)C(=O)N(C)CC(=O)N(C)[C@@H](CC(C)C)C(=O)N[C@H](CC(C)C)C(=O)N(C)[C@H](CC(C)C)C(=O)N[C@H](C)C(=O)O[C@@H](C(C)C)C(=O)N(C)[C@H](CC(C)C)C(=O)N[C@H](CC(C)C)C(=O)N(C)[C@H](C(C)C)C(=O)N1C [Example 1, Cyclo-(MeBmt-Thr-Sar-MeLeu-Leu-MeLeu-Ala-D-Hiv-MeLeu-Leu-MeVal), reference compound] | 70 nM | – | – | – | 1.7 nM | 3.2 nM | 10 to 25 µM (≈ 12.5 to 31.2 µg/mL)
CC(C)C[C@@H]1C(=O)N[C@H](CC(C)C)C(=O)N(C)[C@H](C(C)C)C(=O)N(C)[C@H]([C@H](O)[C@H](C)C/C=C/c2ncccn2)C(=O)N[C@H]([C@@H](C)O)C(=O)N(C)CC(=O)N(C)[C@@H](CC(C)C)C(=O)N[C@H](CC(C)C)C(=O)N(C)[C@H](CC(C)C)C(=O)N[C@H](C)C(=O)O[C@@H](C(C)C)C(=O)N1C [Example 15, cyclo-{(3R,4R,5S)-4-(hydroxy)-3-methyl-5-(methylamino)-1-(pyrimidin-2-yl)-hept-1-enoic acid-Thr-Sar-MeLeu-Leu-MeLeu-Ala-D-Hiv-MeLeu-Leu-MeVal}] (cyclo([Hiv][dNMeL][dL][dNMeV][X4][d(aThr)][Sar][NMeL][dL][dNMeL][dA])) | > 1000 nM | – | – | – | 1 to 25 nM | 1 to 25 nM | 10 to 25 µM (≈ 13.1 to 32.8 µg/mL)
Cc1cccc(CCC[C@@H](C)[C@@H](O)[C@@H]2C(=O)N[C@H]([C@@H](C)O)C(=O)N(C)CC(=O)N(C)[C@@H](CC(C)C)C(=O)N[C@H](CC(C)C)C(=O)N(C)[C@H](CC(C)C)C(=O)N[C@H](C)C(=O)O[C@@H](C(C)C)C(=O)N(C)[C@H](CC(C)C)C(=O)N[C@H](CC(C)C)C(=O)N(C)[C@H](C(C)C)C(=O)N2C)n1 [Example 17] (cyclo([Hiv][dNMeL][dL][dNMeV][X1][d(aThr)][Sar][NMeL][dL][dNMeL][dA])) | > 1000 nM | – | – | – | 1 to 25 nM | 1 to 25 nM | 10 to 25 µM (≈ 13.3 to 33.2 µg/mL)
